Laboratory results from article PMC4266452, “Prediction of Thorough QT study results using action potential simulations based on ion channel screens” (Journal of Pharmacological and Toxicological Methods, 2014).
Several values for one entry are separate records, joined by “and”; a condition that tells them apart may be missing. Equal values may be shown once. Read-outs that look alike come from different tables or passages of the source.

Legend:
[1] = ref Gintant (2011), cited from earlier work
hERG [2] = molecular target: T1, hERG (Homo sapiens, UniProt Q12809); assay: IonWorks Quattro hERG screen (AstraZeneca, Q)
CaV1.2 [3] = molecular target: T2, CaV1.2 (Homo sapiens, UniProt Q13936); assay: IonWorks Quattro CaV1.2 screen (AstraZeneca, Q)
KCNQ1/MinK [4] = molecular target: T3, KCNQ1/MinK (Homo sapiens, UniProt P51787); assay: IonWorks Quattro KCNQ1/MinK screen (AstraZeneca, Q); settings: −log10 of IC50 in Molar
NaV1.5 [5] = molecular target: T4, NaV1.5 (Homo sapiens, UniProt Q14524); assay: IonWorks Quattro NaV1.5 screen (AstraZeneca, Q)
[6] = Plasma concentration (Cmax) during the TQT study, total and calculated free; type: in vivo, human
[7] = ref Gintant (2011); cited from earlier work
KCNQ1/MinK [8] = molecular target: T3, KCNQ1/MinK
Kv4.3/KChIP2.2 = molecular target: T5, Kv4.3/KChIP2.2 (Homo sapiens, UniProt Q9UK17); assay: IonWorks Quattro Kv4.3/KChIP2.2 screen (AstraZeneca, Q); type: cell-based
T5 sequence (Q9UK17 1-655): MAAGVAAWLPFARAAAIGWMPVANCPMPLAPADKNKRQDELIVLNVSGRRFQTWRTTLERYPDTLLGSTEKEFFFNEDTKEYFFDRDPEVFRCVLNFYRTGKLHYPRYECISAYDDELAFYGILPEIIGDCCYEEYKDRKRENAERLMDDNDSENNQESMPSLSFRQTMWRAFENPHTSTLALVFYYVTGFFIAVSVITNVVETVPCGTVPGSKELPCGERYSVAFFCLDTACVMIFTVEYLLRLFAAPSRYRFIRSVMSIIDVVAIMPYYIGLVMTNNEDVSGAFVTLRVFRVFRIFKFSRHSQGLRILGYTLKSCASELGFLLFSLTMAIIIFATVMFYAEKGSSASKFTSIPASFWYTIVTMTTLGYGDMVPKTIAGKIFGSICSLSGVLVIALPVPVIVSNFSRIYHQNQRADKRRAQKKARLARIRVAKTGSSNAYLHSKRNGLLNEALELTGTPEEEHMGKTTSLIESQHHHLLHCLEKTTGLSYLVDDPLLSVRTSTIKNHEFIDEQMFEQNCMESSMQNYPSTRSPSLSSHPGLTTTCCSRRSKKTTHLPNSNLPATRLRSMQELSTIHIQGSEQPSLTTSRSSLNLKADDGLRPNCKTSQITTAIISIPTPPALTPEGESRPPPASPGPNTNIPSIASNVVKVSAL
T5 sequence (Q9NS61 1-270 partner): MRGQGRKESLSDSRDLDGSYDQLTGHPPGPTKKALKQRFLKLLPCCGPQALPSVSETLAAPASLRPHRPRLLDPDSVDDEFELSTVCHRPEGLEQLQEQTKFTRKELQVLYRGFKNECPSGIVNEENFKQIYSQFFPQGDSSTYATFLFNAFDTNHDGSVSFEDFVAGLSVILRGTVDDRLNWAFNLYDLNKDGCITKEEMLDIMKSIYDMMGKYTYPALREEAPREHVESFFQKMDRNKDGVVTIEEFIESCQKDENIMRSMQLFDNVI

NaV1.5 [9] = molecular target: T4, NaV1.5; assay: Second IonWorks Quattro NaV1.5 screen (GSK, Q2)
CaV1.2 [10] = molecular target: T2, CaV1.2; assay: IonWorks Barracuda CaV1.2 screen (GSK, B)
[11] = tested on: QT interval on the body surface ECG; settings: cited from earlier work
hERG [12] = molecular target: T1, hERG; settings: cited from earlier work
[13] = IonWorks Quattro, −log10 of IC50 in Molar, Hill n = 1, 0.0 = pIC50 ≤ 0 fitted
[14] = Hill n = 1, 0.0 = pIC50 ≤ 0 fitted
[15] = Cmax high, calculated from ng/mL and molecular weight
[16] = Cmax high, calculated with PPB and molecular weight
[17] = IonWorks Quattro, −log10 of IC50 in Molar, Hill n = 1, […]
[18] = Cmax low, calculated with PPB and molecular weight
[19] = second independent Quattro screening, −log10 of IC50 in Molar, 0.0 = pIC50 ≤ 0 fitted
[20] = Cmax low, calculated from ng/mL and molecular weight

| SMILES | KCNQ1 pIC50 (Q) (KCNQ1/MinK [4]; [14]) | NaV1.5 pIC50 (Q) (NaV1.5 [5]; [13]) | PPB (percent plasma binding) [7] | Cmax TOTAL ([1]; Cmax high) | CaV1.2 pIC50 (Q) (CaV1.2 [3]) | CaV1.2 pIC50 (B) (CaV1.2 [10]) | Cmax TOTAL [6, 15] | Cmax FREE ([6]; Cmax high, calculated with PPB) | Cmax FREE [6, 16] | Free plasma concentration ([6]; Cmax high) | Free plasma concentration ([6]; Cmax low) | Cmax FREE ([6]; Cmax low, calculated with PPB) | Cmax FREE [6, 18] | Cmax TOTAL ([1]; Cmax low) | Cmax TOTAL [6, 20] | Kv4.3 pIC50 (Q) (Kv4.3/KChIP2.2; [13]) | other results |
| --- | --- | --- | --- | --- | --- | --- | --- | --- | --- | --- | --- | --- | --- | --- | --- | --- | --- |
| C[C@H]1CN(C[C@H](Cc2ccccc2)C(=O)NCC(=O)O)CC[C@@]1(C)c1cccc(O)c1 [Alvimopan] | 4.3 | 3.6 | 70% | – | – | – | – | – | – | – | – | – | – | – | – | – | Cmax TOTAL ([1]; 12mg Capsule): 9.9 ng/mL; IC50 (hERG [2]): 63.1 mM; CaV1.2 pIC50 (Q) (CaV1.2 [3]; [13]): 5.3; Cmax FREE ([6]; 12mg Capsule): 2.97 ng/mL and 6.996 nM; Cmax TOTAL ([6]; 12mg Capsule): 23.3199 nM; Free plasma concentration ([6]; 12mg Capsule): 6.996 nM; Cmax FREE ([6]; 24 extrapolate): 5.94 ng/mL and 13.9919 nM; Cmax TOTAL ([6]; 24 extrapolate): 19.8 ng/mL and 46.6398 nM; Free plasma concentration ([6]; 24 extrapolate): 13.99 nM |
| CNCC[C@H](Oc1cccc2ccccc12)c1cccs1 [Duloxetine] | – | – | 90% | 300 ng/mL | 4.0 | 4.6 | 1008.69 nM | 30 ng/mL | 100.869 nM | – | – | – | – | – | – | – | KCNQ1 pIC50 (Q) (KCNQ1/MinK [8]): 5.0; Kv4.3 pIC50 (Q) (Kv4.3/KChIP2.2): 4.0; NaV1.5 pIC50 (Q2) (NaV1.5 [9]): 4.8; NaV1.5 pIC50 (Q) (NaV1.5 [5]): 5.1 |
| COC[C@@H](NC(C)=O)C(=O)NCc1ccccc1 [Lacosamide] | – | – | 6% PPB | – | – | – | – | 19928 ng/mL | 79618.4 nM | 79618.4 nM | 41311.4 nM | 10340 ng/mL | 41311.4 nM | – | – | – | KCNQ1 pIC50 (Q) (KCNQ1/MinK [8]): 3.6; CaV1.2 pIC50 (Q) (CaV1.2 [3]; [17]): 4.3 |
| Nc1nnc(-c2cccc(Cl)c2Cl)c(N)n1 [Lamotrigine] | – | 4.0 | 55% PPB | 9610 ng/mL | 2.8 | 2.9 | 37525.9 nM | 4324.5 ng/mL | 37525.9 nM | 37525.9 nM | 28193.2 nM | 3249 ng/mL | – | 7220 ng/mL | – | – | NaV1.5 pIC50 (Q2) (NaV1.5 [9]; [19]): 4.4 |
| CS(=O)(=O)CCNCc1ccc(-c2ccc3ncnc(Nc4ccc(OCc5cccc(F)c5)c(Cl)c4)c3c2)o1 [Lapatinib] | 3.6 | 2.5 | – | 3203.000 ng/mL | 2.7 | 1.8 | 5512.340 nM | 32.030 ng/mL | 55.123 nM | 55.12 nM | 23.9 nM | 13.890 ng/mL | 23.905 nM | 1389.000 ng/mL | 2390.459 nM | – | – |
| Cc1c(O)cccc1C(=O)N[C@@H](CSc1ccccc1)[C@H](O)CN1C[C@H]2CCCC[C@H]2C[C@H]1C(=O)NC(C)(C)C [Nelfinavir] | – | – | – | 10900 ng/mL | – | – | 19197.2 nM | 45.78 ng/mL | 80.6284 nM | 80.63 nM | 61.4 nM | 34.86 ng/mL | 61.3959 nM | 8300 ng/mL | 14618.1 nM | 2.3 | IC50 (hERG [2]): 31.6 mM; upper 90% confidence limit of QTc change ([11]; at every time point, ref Damle et al., J Clin Pharm. (49):291-300. 2009): a) upper 90% confidence limit below 10 msec at every; TQT study outcome in words (COMMENTS) ([11]; ref Gintant (2011)): Damle et al concludes negative TQT study since; relationship between exposure and QTc in words (COMMENTS) ([11]; ref Gintant (2011)): time point and b) PK-PD model slopes were negative; hERG pIC50 (M) (hERG [12]): 4.9 |
| Cc1nc2n(c(=O)c1CCN1CCC(c3noc4cc(F)ccc34)CC1)CCCC2O (stereo not drawn) [Paliperidone] | – | 4.6 | 73% PPB | 113 ng/mL | 3.4 | 3.0 | 264.953 nM | 30.51 ng/mL | 71.5374 nM | 71.54 nM | 22.16 nM | 9.45 ng/mL | 22.1576 nM | 35 ng/mL | 82.0652 nM | 4.2 | NaV1.5 pIC50 (Q2) (NaV1.5 [9]; [19]): 3.8 |
| C[C@H](Cc1cc2c(c(C(N)=O)c1)N(CCCO)CC2)NCCOc1ccccc1OCC(F)(F)F [Silodosin] | 3.6 | 4.2 | 95% PPB | 144 ng/mL | – | – | 290.598 nM | 7.2 ng/mL | 14.530 nM | 14.53 nM | 4.288 nM | 2.125 ng/mL | 4.288 nM | 42.5 ng/mL | 85.767 nM | 3.5 | IC50 at 3 min (hERG [2]; human, CHO K1 cells stably transfected with human ERG): 0.0251 mM; CaV1.2 pIC50 (Q) (CaV1.2 [3]; [13]): 3.1 |
| CCN(CC)CCNC(=O)c1c(C)[nH]c(/C=C2\C(=O)Nc3ccc(F)cc32)c1C [Sunitinib] | – | – | – | 80.000 ng/mL | – | – | 150.207 nM | 4.000 ng/mL | 7.510 nM | 7.51 nM | – | – | – | – | – | 4.3 | CaV1.2 pIC50 (Q) (CaV1.2 [3]; [13]): 4.1; CaV1.2 pIC50 (B) (CaV1.2 [10]; IonWorks Barracuda, −log10 of IC50 in Molar, Hill n = 1, 0.0 = pIC50 ≤ 0 fitted): 3.7 |
| Cc1cn([C@@H]2C[C@@H](O)[C@H](CO)O2)c(=O)[nH]c1=O [Telbivudine] | 3.6 | – | 3.3% | 6600 ng/mL | – | – | 27246.8 nM | 6382.2 ng/mL | 26347.7 nM | – | – | 2127.4 ng/mL | 8782.56 nM | 2200 ng/mL | 9082.28 nM | – | IC50 (hERG [2]): 5.01 mM; NaV1.5 pIC50 (Q) (NaV1.5 [5]): 2.5 |
| Cc1ccc(O)c([C@H](CCN(C(C)C)C(C)C)c2ccccc2)c1 [Tolterodine] | – | – | 96.30% | 19.00 ng/mL | – | 4.6 | 36.307 nM | 0.703 ng/mL | 1.343 nM | 1.343 nM | 0.6434 nM | 0.337 ng/mL | 0.643 nM | 9.10 ng/mL | 17.389 nM | – | Kv4.3 pIC50 (Q) (Kv4.3/KChIP2.2; [17]): 4.9; KCNQ1 pIC50 (Q) (KCNQ1/MinK [4]; Hill n = 1, […]): 4.1 |
